Data reported in patent US11203587B2, “Thyroid hormone receptor beta agonist compounds” (Terns, Inc., priority 2018, dated 2021).

Assays:
[1] = biological target: T1, THR beta-LBD (Homo sapiens, UniProt P10828); experiment: LanthaScreen TR-FRET Thyroid Receptor beta Coactivator Assay; format: biochemical; settings: for THRβ-Selectivity: THR beta over THR alpha, derived from T3-selectivity normalized data; for EC50: TR-FRET coactivator assay, 2 hours incubation at room temperature, run in duplicate multiple times, average data, read-out: EC50 THRβ-FRET
T1 construct: THR alpha-LBD (0.4 nM final concentration) or THR beta-LBD (1.0 nM final concentration) was added; purchased ThermoFisher
T1 sequence (P10828 217-461 limits assumed): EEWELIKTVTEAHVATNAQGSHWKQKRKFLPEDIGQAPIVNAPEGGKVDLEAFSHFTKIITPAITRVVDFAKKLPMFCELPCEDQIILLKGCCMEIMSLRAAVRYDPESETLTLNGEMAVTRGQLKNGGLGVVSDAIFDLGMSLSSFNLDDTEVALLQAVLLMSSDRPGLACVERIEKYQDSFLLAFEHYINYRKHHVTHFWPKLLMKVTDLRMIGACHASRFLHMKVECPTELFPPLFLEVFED
Description: LanthaScreen™ TR-FRET Thyroid Receptor alpha Coactivator Assay kit (ThermoFisher) and LanthaScreen™ TR-FRET Thyroid Receptor beta Coactivator Assay kit (ThermoFisher) were used for agonist compound screening. […] Buffer C (ThermoFisher) was added to each well before the 4× mixture of fluorescein-SCR2-2 coactivator (200 nM final concentration), Terbium-labeled anti-GST antibody (2 nM final concentration), and THR alpha-LBD (0.4 nM final concentration) or THR beta-LBD (1.0 nM final concentration) was added.

[2] = biological target: T2, THR alpha-LBD (Homo sapiens, UniProt P10827); experiment: LanthaScreen TR-FRET Thyroid Receptor alpha Coactivator Assay; format: biochemical; settings: 2 hours incubation at room temperature, run in duplicate multiple times, average data, read-out: EC50 THRα-FRET
T2 construct: THR alpha-LBD (0.4 nM final concentration) or THR beta-LBD (1.0 nM final concentration) was added; purchased ThermoFisher
Description: Example B1: Time-Resolved Fluorescence Resonance Energy Transfer (TR-FRET) Assay for Thyroid Hormone Receptor Agonist Screening
LanthaScreen™ TR-FRET Thyroid Receptor alpha Coactivator Assay kit (ThermoFisher) and LanthaScreen™ TR-FRET Thyroid Receptor beta Coactivator Assay kit (ThermoFisher) were used for agonist compound screening. Compounds in DMSO were diluted using ECHO Liquid Handler (Labcyte Inc.) into 384 plates in 10-point 3-fold series in duplicate (5 micro M final top concentration). Buffer C (ThermoFisher) was added to each well before the 4× mixture of fluorescein-SCR2-2 coactivator (200 nM final concentration), Terbium-labeled anti-GST antibody (2 nM final concentration), and THR alpha-LBD (0.4 nM final concentration) or THR beta-LBD (1.0 nM final concentration) was added. After 2 hours incubation at room temperature in the dark, the TR-FRET signal was measured on an EnVision plate reader (PerkinElmer) with excitation at 340 nm and dual emission readout at 495 and 520 nm with the delay time of 100 micro second and the integration time of 200 micro second. The ratio of emission signal at 520 and at 495 was used to calculate EC50 using GraphPad Prism (GraphPad Software). […] Compounds' THR-beta selectivity values in Table 2 are derived from T3-selectivity normalized data.

T2 sequence (P10827 163-410 isoform P10827-2 limits assumed, other chains not shown): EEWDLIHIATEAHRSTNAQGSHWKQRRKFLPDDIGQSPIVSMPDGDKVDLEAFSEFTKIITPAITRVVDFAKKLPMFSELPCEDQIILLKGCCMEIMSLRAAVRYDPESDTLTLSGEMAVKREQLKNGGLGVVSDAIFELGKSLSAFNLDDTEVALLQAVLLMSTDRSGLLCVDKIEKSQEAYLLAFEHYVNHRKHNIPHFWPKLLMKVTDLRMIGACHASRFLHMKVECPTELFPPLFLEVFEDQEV

Row | SMILES | THRβ-Selectivity [1] | EC50 [1] [nM] | EC50 [2] [nM]
1 | CC(C)c1cc(Oc2c(Cl)cc(-c3nn(CC(F)F)c(=O)[nH]c3=O)cc2Cl)nn(C)c1=O [Compound 24, 6-(3,5-dichloro-4-((5-isopropyl-1-methyl-6-oxo-1,6-dihydropyridazin-3-yl)oxy)phenyl)-2-(2,2-difluoroethyl)-1,2,4-triazine-3,5(2H,4H)-dione] | 4.7 | 1190 | 1480
2 | CC(C)c1cc(Oc2c(Cl)cc(-c3n[nH]c(=O)[nH]c3=O)c(F)c2Cl)nn(C)c1=O [Compound 25, 6-(3,5-dichloro-2-fluoro-4-((5-isopropyl-1-methyl-6-oxo-1,6-dihydropyridazin-3-yl)oxy)phenyl)-1,2,4-triazine-3,5(2H,4H)-dione] | 4.4 | 22.2 | 25
3 | CCC(CC)c1cc(Oc2c(Cl)cc(-c3nn(C)c(=O)[nH]c3=O)cc2Cl)n[nH]c1=O [Compound 27, 6-(3,5-dichloro-4-((6-oxo-5-(pentan-3-yl)-1,6-dihydropyridazin-3-yl)oxy)phenyl)-2-methyl-1,2,4-triazine-3,5(2H,4H)-dione] | 33.9 | 213 | 1750
4 | CCc1cc(Oc2c(Cl)cc(-c3nn(C)c(=O)[nH]c3=O)cc2Cl)n[nH]c1=O [Compound 28, 6-(3,5-dichloro-4-((5-ethyl-6-oxo-1,6-dihydropyridazin-3-yl)oxy)phenyl)-2-methyl-1,2,4-triazine-3,5(2H,4H)-dione] | 19.2 | 670 | 3440
5 | CC(CO)c1cc(Oc2c(Cl)cc(-c3nn(C)c(=O)[nH]c3=O)cc2Cl)n[nH]c1=O (stereo not drawn) [Compound 29, 6-(3,5-dichloro-4-((5-(1-hydroxypropan-2-yl)-6-oxo-1,6-dihydropyridazin-3-yl)oxy)phenyl)-2-methyl-1,2,4-triazine-3,5(2H,4H)-dione] | 7.105 | 2070 | 4040
6 | CCC(O)c1cc(Oc2c(Cl)cc(-c3nn(C)c(=O)[nH]c3=O)cc2Cl)n[nH]c1=O (stereo not drawn) [Compound 30, 6-(3,5-dichloro-4-((5-(1-hydroxypropyl)-6-oxo-1,6-dihydropyridazin-3-yl)oxy)phenyl)-2-methyl-1,2,4-triazine-3,5(2H,4H)-dione] | 24.7 | 214 | 1310

Second part, the molecule after the results:

Row | THRβ-Selectivity [1] | EC50 [1] [nM] | EC50 [2] [nM] | SMILES
7 | 14.4 | 987 | 2670 | CC(O)c1cc(Oc2c(Cl)cc(-c3nn(C)c(=O)[nH]c3=O)cc2Cl)n[nH]c1=O (stereo not drawn) [Compound 31, 6-(3,5-dichloro-4-((5-(1-hydroxyethyl)-6-oxo-1,6-dihydropyridazin-3-yl)oxy)phenyl)-2-methyl-1,2,4-triazine-3,5(2H,4H)-dione]
8 | 20.9 | 231 | 1130 | CCC(C)c1cc(Oc2c(Cl)cc(-c3nn(C)c(=O)[nH]c3=O)cc2Cl)n[nH]c1=O (stereo not drawn) [Compound 32, 6-(4-((5-(sec-butyl)-6-oxo-1,6-dihydropyridazin-3-yl)oxy)-3,5-dichlorophenyl)-2-methyl-1,2,4-triazine-3,5(2H,4H)-dione]
9 | 8.6 | 400 | 1160 | CC(O)c1cc(Oc2c(Cl)cc(-c3n[nH]c(=O)[nH]c3=O)cc2Cl)n[nH]c1=O (stereo not drawn) [Compound 34, 6-(3,5-dichloro-4-((5-(1-hydroxyethyl)-6-oxo-1,6-dihydropyridazin-3-yl)oxy)phenyl)-1,2,4-triazine-3,5(2H,4H)-dione]
10 | 10.6 | 665 | 1870 | CC(=O)c1cc(Oc2c(Cl)cc(-c3n[nH]c(=O)[nH]c3=O)cc2Cl)nn(C)c1=O [Compound 35, 6-(4-((5-acetyl-1-methyl-6-oxo-1,6-dihydropyridazin-3-yl)oxy)-3,5-dichlorophenyl)-1,2,4-triazine-3,5(2H,4H)-dione]
